Consider five compounds from patent US6664285B1, “Use of cell membrane penetrating indigoid bisindole derivatives” (priority 1999, dated 2003).

Read-outs that look alike come from different tables or passages of the source. Bounds are passed on as bounds.

One data set concerns OVXF1353 (ovarian). The data set can be described thus: Colony-forming assay. The class given is cell-based, human. As for the experimental part:
(§1) The anti-tumor activity of the compounds was evaluated via a colony-forming-assay as described e.g. by D. P. Berger et al. in Annals of Oncology 1, pages 333-341 (1 990), “The clonongenic assay with human tumor xenografts, evaluation, predictive values and application for drug screening”.
(§2) The experiments were conducted using various tumor cell lines, in particular mammary carcinoma (MAXF), lung adenocarcinoma (LXFA), large-cell lung carcinoma (LXFL), small-cell lung carcinoma (LXFS), colon carcinoma (CXF), melanoma (MEXF), pancreatic carcinoma (PAXF), renal carcinoma (RXF), ovarian carcinoma (OVXF) and bladder carcinoma (BXF).

A further data set relates to MCF7X (mammary). The data set can be described thus: Colony-forming assay. The class given is cell-based, human. To be noted: for IC50: read-out: IC50 colony formation.
Data set [1] has as its system large-cell lung carcinoma xenograft line LXFL 529 L. The data set can be described thus: Tumor cell growth inhibition, sulforhodamine B (SRB) assay. The class given is cell-based, human. To be noted: LXFL529L; three days incubation, serum containing medium. (In general: In SRB staining, fixed cells bind dye roughly in proportion to their protein.)
In data set [2] the test system is human tumor xenograft LXFL 529. The data set can be described thus: In vivo testing in nude mice bearing subcutaneous tumor xenograft. The following applies: for tumor growth (relative tumor volume) compared to the vehicle control (in words): LXFL 529/17, i.p., nude mice, FIG. 1. The method, then:
Compound of Examples 1, 4, 6, 8, 9 and 10 were subjected to in vivo testing in nude mice bearing subcutaneously growing human tumor xenograft LXFL 529. The indigoid bisindole derivatives were applied intraperitoneally to the animals in doses and according to the schedule as described in Table 4.
The experiments were run for 21 or 28 days. Anti-tumor activity was evaluated comparing the median tumor volume relative to control, expressed as %T/C, wherein T is the test group and C the vehicle control group. In Table 4, anti-tumor activity is given according to an activity rate scale.

For data set [3], the system named is LXFL529 (lung large-cell). As to the kind of experiment: Colony-forming assay. The data set is classed as cell-based, human.
Another data set deals with PAXF736 (pancreatic). The data set can be described thus: Colony-forming assay. The class given is cell-based, human. The following applies: for IC50: read-out: IC50 colony formation.
The conditions of data set [4]: cited from earlier work.
The subject of the next data set is LXFL 529L cells. The data set can be described thus: Cellular uptake into LXFL 529L cells. The following applies: for distribution cellular organelles / distribution cytosol / amount of substance within the cells: 2 hours incubation. As for the experimental part:
The compounds of Examples 1, 6 and 8 and Comparative Examples 1 and 2 were investigated with respect to their ability to penetrate LXFL 529L cells having the passage numbers P23 to P39. The amounts of the substances taken up by the cells are given depending on the concentration of the substance within the incubation medium. The time of incubation was 2 hours in all of the experiments. Furthermore, the distribution of the substance which was taken up by the cells in the cytosol and the cellular organelles (particular) was estimated and is given in the intermediate column of Table 2. Tumor cell growth inhibition was determined by the sulfo-rhodamine B assay (SRB assay) according to Skehan et al., J. Natl. Cancer Institute 82, pages 1107-1112 (1990). Incubation was conducted for three days in serum containing medium. Tumor cell lines tested were a large-cell lung carcinoma xenograft line LXFL 529 L and the mammary carcinoma line MCF-7.

Data set [5] has as its system mammary carcinoma line MCF-7. The data set can be described thus: Tumor cell growth inhibition, sulforhodamine B (SRB) assay. The data set is classed as cell-based, human. To be noted: MCF7; three days incubation, serum containing medium.
For data set [6] the following is noted: dosage of 100 mg/kg up to 300 mg/kg, FIG. 2 and FIG. 4.
Description: A reduction of the body weight of the tested mice of more then 20% by weight in general is interpreted as a toxic dose.
Another data set concerns MEXF514 (melanoma). As to the kind of experiment: Colony-forming assay. The data set is classed as cell-based, human.
The next data set relates to OVXF1352 (ovarian). As for the experimental part:
as §1, §2

The test system of another data set is HT29X (colon). As to the kind of experiment: Colony-forming assay. The class given is cell-based, human. To be noted: colon HT29X; for IC50: read-out: IC50 colony formation.
Another data set relates to MEXF989 (melanoma). As to the kind of experiment: Colony-forming assay. The class given is cell-based, human.
Another data set relates to CXF280 (colon). The data set can be described thus: Colony-forming assay. The following applies: for IC50: read-out: IC50 colony formation. The data set is classed as cell-based, human.
Another data set has as its system BXF1301 (bladder). As to the kind of experiment: Colony-forming assay. The class given is cell-based, human.
In the next data set the test system is PAXF546 (pancreatic). The data set can be described thus: Colony-forming assay. The class given is cell-based, human.
Data set [7] relates to LXFS650 (lung small-cell). The data set can be described thus: Colony-forming assay. The class given is cell-based, human. The following applies: for IC50: Homo sapiens, read-out: IC50 colony formation.
For the next data set, the system named is MX1 (mammary). The data set can be described thus: Colony-forming assay. The data set is classed as cell-based, human. The following applies: for IC50: Homo sapiens, read-out: IC50 colony formation.
A further data set has as its system OVXF1355 (ovarian). As to the kind of experiment: Colony-forming assay. The data set is classed as cell-based, human.
Data set [8] concerns LXFA289 (lung adenocarcinoma). The data set can be described thus: Colony-forming assay. The class given is cell-based, human.
A further data set relates to MEXF515LX (melanoma). The data set can be described thus: Colony-forming assay. The class given is cell-based, human.
In another data set the test system is OVXF899 (ovarian). The method, then: as §1, §2
For another data set, the system named is BXF1299 (bladder). The data set can be described thus: Colony-forming assay. The class given is cell-based, human.
Where [9] appears, read: read-out: IC50 colony formation.
Where [10] appears, read: concentration of incubation 10 μM.
Where [11] appears, read: concentration of incubation 20 μM.
The mark [12] stands for this setting: Homo sapiens, read-out: IC50 colony formation.

For the compound `O=C1Nc2ccccc2/C1=C1/Nc2ccccc2C1=O` [Example 1, Indirubin], the IC70 colony formation in the data set with OVXF1353 (ovarian) is more than 30000 nM; with MCF7X (mammary), 6000 nM; in data set [3] it was 35600 nM; with PAXF736 (pancreatic), more than 30000 nM. The IC50 in the data set with OVXF1353 (ovarian) (setting [9]) was determined as 12300 nM; in the data set with MCF7X (mammary), 2000 nM; in [1], 9900 ± 100 nM; in data set [3] (setting [9]), 25300 nM; with PAXF736 (pancreatic) it was 5400 nM; in data set [5] it was 4000 ± 2000 nM. Also, the activity rating entry is “+ (tumor inhibition T/C > 25-50%)” in data set [2] (100 mg/kg/day i.p., days 1-5, 8-9) and “++ (tumor stasis T/C ≦ 25%)” in data set [2] (200 mg/kg/day i.p., days 1-5, 8-9). For the same compound, the “tumor growth (relative tumor volume) compared to the vehicle control (in words)” value in data set [2] is recorded as “significantly inhibited the tumor growth”. For the same compound, in [4], the “solubility in water (in words)” value was “dissolves only poorly in water”. Also, in the data set with LXFL 529L cells (LXFL 529L cells), the “uptake by the tumor cells (in words)” value is “taken up by the tumor cells”. The results for the distribution cellular organelles with LXFL 529L cells (setting [10]) and in the data set on LXFL 529L cells (setting [11]) were 93 ± 5.7% and 94 ± 1.4%, respectively. The distribution cytosol in the data set with LXFL 529L cells (setting [10]) is 7 ± 5.7%; in the data set on LXFL 529L cells (setting [11]) it was 6 ± 1.4%.

In the case of `Cc1ccc2c(c1)/C(=C1/Nc3ccccc3C1=O)C(=O)N2` [Example 6, 5-Methylindirubin], the IC70 colony formation in the data set on MCF7X (mammary) was 1200 nM; in the data set on MEXF514 (melanoma), 27800 nM; with OVXF1352 (ovarian) it was more than 30000 nM; in the data set on PAXF736 (pancreatic), 27500 nM; in the data set on HT29X (colon) it was 14400 nM. Moreover, the IC50 in the data set on MCF7X (mammary) was less than 1000 nM; in data set [1], 7500 ± 500 nM; in the data set on MEXF514 (melanoma) (setting [9]), 19200 nM; with OVXF1352 (ovarian) (setting [9]), 1000 nM; in the data set with PAXF736 (pancreatic), 15400 nM; with HT29X (colon), less than 1000 nM. The compound further registered an IC50 in data set [5] of 4800 ± 500 nM. Further, the “reduction of body weight (in words)” value in data set [6] is “without any significant reduction of body weight”. The activity rating entry in [2] (100 mg/kg/day i.p., days 1-5, 8-12, 15, 17, 19, 22) is reported as “++ (tumor stasis T/C ≦ 25%)”; in [2] (300 mg/kg/day i.p., days 1, 4, 8, 11, 15, 18, 22), “++ (tumor stasis T/C ≦ 25%)”. Besides, in data set [2], the “tumor growth (relative tumor volume) compared to the vehicle control (in words)” value is on record as “significantly inhibited the tumor growth”. Moreover, the “anti-tumor activity (in words)” value in data set [2] (dosage of 100 mg/kg up to 300 mg/kg, FIG. 1 and FIG. 3) is “very high anti-tumor activity”. For the same compound, the “ability to penetrate the cellular membrane / uptake compared to indirubin (Example 1) (in words)” value with LXFL 529L cells (LXFL 529L cells) is listed as “substantially improved”. Besides, the “uptake by the tumor cells (in words)” value in the data set on LXFL 529L cells (LXFL 529L cells) is “taken up by the tumor cells”. Also, the figures for the “amount of substance within the cells” value with LXFL 529L cells (setting [10]) and in the data set on LXFL 529L cells (setting [11]) were 0.52 ± 0.1 and 0.86 ± 0.22, respectively. Moreover, the distribution cellular organelles with LXFL 529L cells (setting [10]) was 87 ± 0.7%; with LXFL 529L cells (setting [11]), 94 ± 2.8%. Further, the distribution cytosol worked out at 13 ± 0.7% with LXFL 529L cells (setting [10]) and 6 ± 2.8% in the data set on LXFL 529L cells (setting [11]).

Take `O=C1Nc2ccccc2/C1=C1\C(=O)Nc2ccccc21` [Example 10, Isoindigo]: the IC70 colony formation with MCF7X (mammary) is less than 1000 nM; in the data set with MEXF989 (melanoma), less than 1000 nM; in the data set on CXF280 (colon), less than 1000 nM; with BXF1301 (bladder) it was 8200 nM; in the data set on PAXF546 (pancreatic), less than 1000 nM; in data set [7], less than 1000 nM. Moreover, the IC70 colony formation in [3] is 4500 nM; in the data set on PAXF736 (pancreatic), less than 1000 nM; in the data set with HT29X (colon), less than 1000 nM; in the data set on MX1 (mammary), less than 1000 nM; in the data set on OVXF1355 (ovarian), less than 1000 nM. Besides, the IC50 with MCF7X (mammary) (Homo sapiens) is less than 1000 nM; with MEXF989 (melanoma) (Homo sapiens, MEXF 989, read-out: IC50 colony formation) it was less than 1000 nM; with CXF280 (colon) (Homo sapiens), less than 1000 nM; in the data set on BXF1301 (bladder) (setting [12]) it was 6000 nM; with PAXF546 (pancreatic) (setting [12]), less than 1000 nM; in [7], less than 1000 nM. The IC50 in data set [3] (Homo sapiens, LXFL 529, read-out: IC50 colony formation) is 2600 nM; in the data set with PAXF736 (pancreatic) (Homo sapiens) it was less than 1000 nM; with HT29X (colon) (Homo sapiens) it was less than 1000 nM; in the data set with MX1 (mammary) it was less than 1000 nM; in the data set on OVXF1355 (ovarian) (setting [12]), less than 1000 nM. Moreover, the activity rating result is “− (inactive T/C > 50%)” in [2] (30 mg/kg/day i.p., days 1-5); “− (inactive T/C > 50%)” in [2] (100 mg/kg/day i.p., days 1-5); “+ (tumor inhibition T/C > 25-50%)” in data set [2] (300 mg/kg/day i.p., days 1-5).

As for `O=C1Nc2ccc(S(=O)(=O)NCCO)cc2C1=C1Nc2ccccc2C1=O` [Example 13, Indirubin-5-sulfone(2-hydroxyethyl)amide], the IC70 colony formation was found to be 2100 nM in the data set with MCF7X (mammary); 17300 nM with CXF280 (colon); 2600 nM in [8]; 400 nM with MEXF515LX (melanoma); 400 nM in the data set on OVXF899 (ovarian); 5900 nM in data set [3]. Besides, the IC50 in the data set with MCF7X (mammary) is 600 nM; in the data set with CXF280 (colon), 12000 nM; in [8] (setting [9]), 1100 nM; in the data set on MEXF515LX (melanoma) (setting [9]), less than 100 nM; in the data set with OVXF899 (ovarian) (setting [9]) it was 300 nM; in data set [3] (setting [9]) it was 3400 nM.

Consider `c1ccc(-c2c(-c3[nH]c4ccccc4c3-c3ccccc3)[nH]c3ccccc23)cc1` [Example 14, Bis(3-phenylindol-2-yl)], for which the IC70 colony formation in the data set with CXF280 (colon) is 7200 nM; in [7], 6700 nM; with BXF1299 (bladder), 6200 nM; in the data set with HT29X (colon), 3400 nM; in the data set on MX1 (mammary) it was 4800 nM. In addition, the IC50 in the data set on CXF280 (colon) (Homo sapiens) was less than 1000 nM; in data set [7] it was 4700 nM; with BXF1299 (bladder) (setting [12]) it was 2700 nM; in the data set with HT29X (colon) (Homo sapiens), 1600 nM; in the data set on MX1 (mammary), 2800 nM. Further, the activity rating entry in data set [2] (10 mg/kg/day i.p., days 1-5, 8-12) was “− (inactive T/C > 50%)”; in data set [2] (100 mg/kg/day i.p., days 1-5, 8-12), “+ (tumor inhibition T/C > 25-50%)”; in [2] (300 mg/kg/day i.p., days 1-5, 8-12), “+ (tumor inhibition T/C > 25-50%)”.

Broadly, the IC50 is the concentration that gives 50% inhibition.
